Laboratory results as given in patent US10047105B2, “Gyrase inhibitors” (Merck Sharp & Dohme Corp., priority 2009, dated 2018).
Values after ≈ are worked out from the molar mass of the structure shown.

Tests used:
S. aureus ATCC 13709 = test: MIC, antibacterial potency, S. aureus; type: cell-based; conditions: S. aureus
S. pneumoniae ATCC 51916 = test: MIC, S. pneumoniae; type: cell-based; conditions: S. pneumoniae

SMILES	MIC, SA (S. aureus ATCC 13709) [µg/mL]	MIC Spn52 (S. pneumoniae ATCC 51916) [µg/mL]
CCc1[nH]c2nc(Sc3cccnc3)nc(N[C@H](C)CO)c2c1C=O [700,131]	64 (≈ 179 µM)	–
CCc1[nH]c2nc(Sc3cccnc3)nc(NC3CCCC[C@H]3O)c2c1C=O (stereo partly shown) [700,132]	32 (≈ 80.5 µM)	–
CCc1[nH]c2nc(Sc3cccnc3)nc(N[C@H]3CCCC[C@@H]3N)c2c1C=O [700,133]	> 64	–
CCOC(=O)c1ccc(CNc2nc(Sc3cccnc3)nc3[nH]c(CC)c(C=O)c23)o1 [700,135]	> 64	–
CCc1[nH]c2nc(Sc3cccnc3)nc(N(C)C)c2c1C=O [700,136]	16 (≈ 48.9 µM)	–
CCc1[nH]c2nc(Sc3cccnc3)nc(N(C)CCN(C)C)c2c1C=O [700,137]	64 (≈ 166 µM)	–
CCc1[nH]c2nc(Sc3cccnc3)nc(NCCCCCC(=O)O)c2c1C=O [700,141]	64 (≈ 155 µM)	–
CCc1[nH]c2nc(Sc3cccnc3)nc(NC34CC5CC(C3)C(=O)C(C5)C4)c2c1C=O [700,142]	32 (≈ 71.5 µM)	–
CCc1[nH]c2nc(Sc3nc4ccccc4s3)nc(N)c2c1C [700,147]	> 64	–
CCc1[nH]c2nc(SCc3cccnc3)nc(N)c2c1C [700,148]	> 64	–
CCc1[nH]c2nc(Sc3cnc4ccccc4n3)nc(N)c2c1C [700,149]	> 64	–
CCc1nc2c(N(C)C)nc(Sc3cccc(C(=O)O)c3)nc2[nH]1.O=C(O)C(F)(F)F [700,220]	> 64	64
CCc1[nH]c2nc(Sc3cccnc3)nc(NCCCn3ccnc3)c2c1C=O.O=C(O)C(F)(F)F.O=C(O)C(F)(F)F [700,261]	16	32
CCc1[nH]c2nc(Sc3cccnc3)nc(Cl)c2c1Br.O=C(O)C(F)(F)F [700,267]	2	16
CCc1[nH]c2nc(Sc3cccnc3)nc(Cl)c2c1Cl.O=C(O)C(F)(F)F [700,268]	4	16
CCc1[nH]c2nc(Sc3cccnc3)nc(NCCCn3ccnc3)c2c1Br.O=C(O)C(F)(F)F.O=C(O)C(F)(F)F [700,269]	4	16
CCc1[nH]c2nc(Sc3cccnc3)nc(NC[C@H](C)O)c2c1Br.O=C(O)C(F)(F)F [700,270]	2	8
CCc1[nH]c2nc(Sc3cccnc3)nc(NCc3ccccc3OC)c2c1Br.O=C(O)C(F)(F)F [700,271]	> 64	> 64
CCc1[nH]c2nc(Sc3cccnc3)nc(NC[C@H](C)O)c2c1Cl.O=C(O)C(F)(F)F [700,273]	4	16
CCc1[nH]c2nc(Sc3cccnc3)nc(NCCCn3ccnc3)c2c1Cl.O=C(O)C(F)(F)F [700,274]	4	16
CCOc1nc(Sc2cccnc2)nc2[nH]c(CC)c(Br)c12.O=C(O)C(F)(F)F [700,275]	1	8

SMILES	MIC, SA (S. aureus ATCC 13709) [µg/mL]	MIC Spn52 (S. pneumoniae ATCC 51916) [µg/mL]
CCOc1nc(Sc2nc(C(=O)OC)cs2)nc2[nH]c(CC)c(Br)c12 [700,281]	32 (≈ 72.2 µM)	64 (≈ 144 µM)
CCc1[nH]c2nc(Sc3nc(C(=O)OC)cs3)nc(O)c2c1Br [700,282]	≤ 0.5	4 (≈ 9.63 µM)
CCOc1nc(Sc2nc(C(=O)O)cs2)nc2[nH]c(CC)c(Br)c12 [700,286]	4 (≈ 9.32 µM)	32 (≈ 74.5 µM)
CCc1[nH]c2nc(Sc3cccnc3)nc(NCCNc3ccc(C(=O)O)cn3)c2c1C=O [700,287]	> 64	> 64
CCOc1nc(S(C)(=O)=O)nc2[nH]c(CC)c(Br)c12 [700,288]	> 64	64 (≈ 184 µM)
CCOC(=O)c1coc(Sc2nc(OCC)c3c(Br)c(CC)[nH]c3n2)n1 [700,290]	> 64	> 64
CCOC(=O)c1cnc(Sc2nc(OCC)c3c(Br)c(CC)[nH]c3n2)s1 [700,291]	> 64	> 64
CCOc1nc(Sc2nc(C(=O)O)co2)nc2[nH]c(CC)c(Br)c12 [700,292]	> 64	> 64
CCOc1nc(Sc2ncc(C(=O)O)s2)nc2[nH]c(CC)c(Br)c12 [700,293]	32 (≈ 74.5 µM)	32 (≈ 74.5 µM)
CCOc1nc(Sc2nc(C(=O)N[C@H]3CCOC3=O)co2)nc2[nH]c(CC)c(Br)c12 [700,294]	> 64	> 64
CCc1[nH]c2nc(Sc3cccc(NC(=O)OC)c3)nc(NC[C@H](C)O)c2c1Br [700,295]	> 64	32 (≈ 66.6 µM)
CCc1[nH]c2nc(Sc3cccc(CC(=O)OC)c3)nc(Cl)c2c1Br [700,296]	> 64	64 (≈ 145 µM)
CCOc1nc(Sc2cnc3cccnc3n2)nc2[nH]c(CC)c(Br)c12 [700,297]	≤ 0.5	2 (≈ 4.64 µM)
CCOc1nc(Sc2cnc3cccnc3n2)nc2[nH]c(CC)c(Cl)c12 [700,298]	2 (≈ 5.17 µM)	8 (≈ 20.7 µM)
CCOc1nc(Sc2nc(C(=O)OC)c(C(C)C)s2)nc2[nH]c(CC)c(Br)c12 [700,301]	64 (≈ 132 µM)	> 64
CCOc1nc(Sc2nc(C(=O)OC)c(C(C)C)s2)nc2[nH]c(CC)c(Cl)c12 [700,302]	32 (≈ 72.6 µM)	> 64
CCOc1nc(Sc2nc(C(=O)O)c(C(C)C)s2)nc2[nH]c(CC)c(Br)c12 [700,303]	4 (≈ 8.49 µM)	32 (≈ 67.9 µM)
CCOc1nc(Sc2nc(C(=O)OC)c(C(C)C)s2)nc2[nH]c(CC)c(Cl)c12 [700,304]	8 (≈ 18.1 µM)	32 (≈ 72.6 µM)
CCOc1nc(Sc2cc(C(=O)NC3CC3)ccn2)nc2[nH]c(CC)c(Br)c12 [700,305]	> 64	> 64
CCOc1nc(Sc2cc(C(=O)NC3CC3)ccn2)nc2[nH]c(CC)c(Cl)c12 [700,306]	> 64	> 64
CCc1[nH]c2nc(Sc3cccc(CC(=O)O)c3)nc(Cl)c2c1Br [700,307]	4 (≈ 9.37 µM)	64 (≈ 150 µM)

SMILES	MIC, SA (S. aureus ATCC 13709) [µg/mL]	MIC Spn52 (S. pneumoniae ATCC 51916) [µg/mL]
Fc1ccc(Oc2nc(Nc3cccnc3)nc3[nH]cc(Br)c23)c(F)c1.O=C(O)C(F)(F)F [700,315]	16	64
CCc1[nH]c2nc(Sc3nc(C(=O)O)cs3)nc(N3CC(Cc4c(Cl)ncnc4Cl)C3)c2c1Cl.O=C(O)C(F)(F)F [700,317]	> 64	> 64
CCc1[nH]c2nc(Sc3nc(C(=O)O)cs3)nc(N3CC(Cc4cncnc4)C3)c2c1Cl.O=C(O)C(F)(F)F [700,318]	> 64	> 64
CCc1[nH]c2nc(Sc3nc(C(=O)OC)cs3)nc(Cl)c2c1Cl [700,320]	> 64	> 64
CCOc1nc(Sc2cc(C(=O)O)ccn2)nc2[nH]c(CC)c(Cl)c12 [700,321]	64 (≈ 169 µM)	64 (≈ 169 µM)
CCc1[nH]c2nc(Sc3nc(C(=O)O)cs3)nc(NC[C@H](C)O)c2c1Cl [700,322]	> 64	> 64
CCc1[nH]c2nc(Sc3nc(C(=O)O)cs3)nc(NCCCn3ccnc3)c2c1Cl [700,323]	> 64	> 64
CCOc1nc(Sc2ccc(NC3CC3)nn2)nc2[nH]c(CC)c(Cl)c12 [700,324]	> 64	64 (≈ 164 µM)
CCNc1ccc(Sc2nc(OCC)c3c(Cl)c(CC)[nH]c3n2)nn1 [700,325]	> 64	> 64
CCOc1nc(Sc2ccc(NCCCOC)nn2)nc2[nH]c(CC)c(Cl)c12 [700,326]	> 64	32 (≈ 75.7 µM)
CCOc1nc(Sc2ccc(N3CCC(O)CC3)nn2)nc2[nH]c(CC)c(Cl)c12 [700,327]	32 (≈ 73.6 µM)	64 (≈ 147 µM)
CCc1[nH]c2nc(Sc3nc(C(=O)OC)c(Cl)s3)nc(OCC3CCC3)c2c1Cl [700,328]	> 64	64 (≈ 135 µM)
CCOc1nc(Nc2cccnc2)nc2[nH]c(CC)c(Br)c12 [700,331]	8 (≈ 22.1 µM)	> 64
CCc1[nH]c2nc(SC)nc(CCC3OCCCO3)c2c1Br [700,332]	> 64	> 64
CCc1[nH]c2nc(SC)nc(CCCNCCN3CCOCC3)c2c1Br [700,334]	> 64	> 64
CCc1[nH]c2nc(Sc3nc(C(=O)O)cs3)nc(N3CC(F)(F)C3)c2c1Cl.O=C(O)C(F)(F)F [700,338]	8	64
CCOc1nc(Sc2nc(OC)c3cccnc3n2)nc2[nH]c(CC)c(Cl)c12 [700,339]	> 64	> 64
CCc1[nH]c2nc(Sc3nc(C(=O)O)cs3)nc(N3CC(O)C3)c2c1Cl [700,340]	> 64	> 64
CCOc1nc(Sc2ncc3cccnc3n2)nc2[nH]c(CC)c(Cl)c12 [700,341]	> 64	> 64
CCc1[nH]c2nc(Sc3cc(=O)n(CCc4ccccc4)c(=O)[nH]3)nc(N3CC(O)C3)c2c1Br [700,413]	–	8 (≈ 14.7 µM)
